From ChEMBL document CHEMBL4304802, “Novel promising 4-anilinoquinazoline-based derivatives as multi-target RTKs inhibitors: Design, molecular docking, synthesis, and antitumor activities in vitro and vivo” (Bioorg Med Chem, 2019)
Activity calls are given as the source filed them. The calls are words filed in the database; no cut-off is given here.

How the values were obtained:
HepG2 [1] = experiment: Antiproliferative activity against human HepG2 cells incubated for 72 hrs by MTT assay; format: functional, cell-based; conditions: HepG2, 72 h
SH-SY5Y = experiment: Antiproliferative activity against human SH-SY5Y cells incubated for 72 hrs by MTT assay; format: functional, cell-based
DU-145 = experiment: Antiproliferative activity against human DU145 cells incubated for 72 hrs by MTT assay; format: functional, cell-based; conditions: DU-145, 72 h
MCF7 = experiment: Antiproliferative activity against human MCF7 cells incubated for 72 hrs by MTT assay; format: functional, cell-based; conditions: MCF7, 72 h
A549 = experiment: Antiproliferative activity against human A549 cells incubated for 72 hrs by MTT assay; format: functional, cell-based; conditions: A549, 72 h
[2] = Cytotoxicity against human CCC-HPF1 cells assessed as decrease in cell viability incubated for 72 hrs by MTT assay; format: cell-based; conditions: CCC-HPF-1, 72 h
HepG2 [3] = experiment: Antitumor activity against human HepG2 cells xenografted in nude mouse assessed as inhibition of tumor growth administrated daily for 50 days post implantation by vernier caliper analysis; format: functional
[4] = target: Epidermal growth factor receptor (Homo sapiens, UniProt P00533); experiment: Inhibition of EGFR (unknown origin) using TK substrate incubated for 60 mins by FRET assay
HepG2 [5] = experiment: Induction of apoptosis in human HepG2 cells assessed as cell detachment at 2 to 8 uM incubated for 48 hrs by optical microscopic method; format: functional, cell-based
HepG2 [6] = experiment: Induction of apoptosis in human HepG2 cells assessed as viable cells at IC50 incubated for 48 hrs by Annexin V-FITC and PI staining based flow cytometric analysis (reference value: 93.4%); format: functional
[7] = Toxicity in nude mouse xenografted with human HepG2 cells assessed as change in body weight at 20 to 30 mg/kg administrated daily for 50 days post implantation; format: organism-based; conditions: in vivo, 1200 h
HepG2 [8] = experiment: Induction of apoptosis in human HepG2 cells assessed as viable cells at 2 times IC50 incubated for 48 hrs by Annexin V-FITC and PI staining based flow cytometric analysis (reference value: 93.4%); format: functional
HepG2 [9] = experiment: Disruption of mitochondrial membrane potential in human HepG2 cells assessed as appearance of cell desquamation at 1.5 uM to 5 uM incubated for 48 hrs by JC-1 dye based LSCM analysis; format: functional
HepG2 [10] = experiment: Induction of apoptosis in human HepG2 cells assessed as late apoptotic cells at IC50 incubated for 48 hrs by Annexin V-FITC and PI staining based flow cytometric analysis (reference value: 3.47%); format: functional
HepG2 [11] = experiment: Induction of apoptosis in human HepG2 cells assessed as necrotic cells at 0.5 times IC50 incubated for 48 hrs by Annexin V-FITC and PI staining based flow cytometric analysis (reference value: 1.36%); format: functional
HepG2 [12] = experiment: Induction of apoptosis in human HepG2 cells assessed as necrotic cells at 2 times IC50 incubated for 48 hrs by Annexin V-FITC and PI staining based flow cytometric analysis (reference value: 1.36%); format: functional
[13] = target: Platelet-derived growth factor receptor beta (Homo sapiens, UniProt P09619); experiment: Inhibition of PDGFRbeta (unknown origin) using TK substrate incubated for 60 mins by FRET assay
HepG2 [14] = experiment: Induction of ROS generation in human HepG2 cells assessed as increase in green fluorescence incubated for 48 hrs by DCFH-DA staining based LSCM method; format: functional, cell-based
HepG2 [15] = experiment: Antitumor activity against human HepG2 cells xenografted in nude mouse assessed as inhibition of tumor at 40 mg/kg administrated daily for 30 days post implantation by vernier caliper analysis relative to control; format: functional; conditions: HepG2, 720 h
HepG2 [16] = experiment: Induction of apoptosis in human HepG2 cells assessed as viable cells at 0.5 times IC50 incubated for 48 hrs by Annexin V-FITC and PI staining based flow cytometric analysis (reference value: 93.4%); format: functional
HepG2 [17] = experiment: Antitumor activity against human HepG2 cells xenografted in nude mouse assessed as suppression of tumor volume at 20 to 40 mg/kg administrated daily for 50 days post implantation by vernier caliper analysis; format: functional, organism-based
HepG2 [18] = experiment: Disruption of mitochondrial membrane potential in human HepG2 cells at 1.5 uM to 5 uM incubated for 48 hrs by JC-1 dye based fluorescence spectrophotometric analysis; format: functional, cell-based
HepG2 [19] = experiment: Induction of apoptosis in human HepG2 cells assessed as late apoptotic cells at 2 times IC50 incubated for 48 hrs by Annexin V-FITC and PI staining based flow cytometric analysis (reference value: 3.47%); format: functional
HepG2 [20] = experiment: Induction of apoptosis in human HepG2 cells assessed as early apoptotic cells at 0.5 times IC50 incubated for 48 hrs by Annexin V-FITC and PI staining based flow cytometric analysis (reference value: 1.75%); format: functional
HepG2 [21] = experiment: Induction of apoptosis in human HepG2 cells assessed as decrease in cell number at 2 to 8 uM incubated for 48 hrs by optical microscopic method; format: functional, cell-based
HepG2 [22] = experiment: Induction of apoptosis in human HepG2 cells assessed as cell shrinkage at 2 to 8 uM incubated for 48 hrs by optical microscopic method; format: functional, cell-based
[23] = Toxicity in nude mouse xenografted with human HepG2 cells assessed as change in body weight at 40 mg/kg administrated daily for 50 days post implantation; format: organism-based; conditions: in vivo, 1200 h
[24] = target: Vascular endothelial growth factor receptor 2 (Homo sapiens, UniProt P35968); experiment: Inhibition of VEGFR2 (unknown origin) using TK substrate incubated for 60 mins by FRET assay
HepG2 [25] = experiment: Induction of apoptosis in human HepG2 cells assessed as early apoptotic cells at IC50 incubated for 48 hrs by Annexin V-FITC and PI staining based flow cytometric analysis (reference value: 1.75%); format: functional
HepG2 [26] = experiment: Disruption of mitochondrial membrane potential in human HepG2 cells assessed as cell shriveled at 1.5 uM to 5 uM incubated for 48 hrs by JC-1 dye based LSCM analysis; format: functional
HepG2 [27] = experiment: Induction of apoptosis in human HepG2 cells assessed as late apoptotic cells at 0.5 times IC50 incubated for 48 hrs by Annexin V-FITC and PI staining based flow cytometric analysis (reference value: 3.47%); format: functional
HepG2 [28] = experiment: Induction of apoptosis in human HepG2 cells assessed as early apoptotic cells at 2 times IC50 incubated for 48 hrs by Annexin V-FITC and PI staining based flow cytometric analysis (reference value: 1.75%); format: functional
HepG2 [29] = experiment: Induction of apoptosis in human HepG2 cells assessed as necrotic cells at IC50 incubated for 48 hrs by Annexin V-FITC and PI staining based flow cytometric analysis (reference value: 1.36%); format: functional
[30] = Toxicity in nude mouse xenografted with human HepG2 cells assessed as change in body weight at 20 mg/kg administrated daily for 50 days post implantation; format: organism-based; conditions: in vivo, 1200 h

Sequence of Platelet-derived growth factor receptor beta (P09619 whole entry): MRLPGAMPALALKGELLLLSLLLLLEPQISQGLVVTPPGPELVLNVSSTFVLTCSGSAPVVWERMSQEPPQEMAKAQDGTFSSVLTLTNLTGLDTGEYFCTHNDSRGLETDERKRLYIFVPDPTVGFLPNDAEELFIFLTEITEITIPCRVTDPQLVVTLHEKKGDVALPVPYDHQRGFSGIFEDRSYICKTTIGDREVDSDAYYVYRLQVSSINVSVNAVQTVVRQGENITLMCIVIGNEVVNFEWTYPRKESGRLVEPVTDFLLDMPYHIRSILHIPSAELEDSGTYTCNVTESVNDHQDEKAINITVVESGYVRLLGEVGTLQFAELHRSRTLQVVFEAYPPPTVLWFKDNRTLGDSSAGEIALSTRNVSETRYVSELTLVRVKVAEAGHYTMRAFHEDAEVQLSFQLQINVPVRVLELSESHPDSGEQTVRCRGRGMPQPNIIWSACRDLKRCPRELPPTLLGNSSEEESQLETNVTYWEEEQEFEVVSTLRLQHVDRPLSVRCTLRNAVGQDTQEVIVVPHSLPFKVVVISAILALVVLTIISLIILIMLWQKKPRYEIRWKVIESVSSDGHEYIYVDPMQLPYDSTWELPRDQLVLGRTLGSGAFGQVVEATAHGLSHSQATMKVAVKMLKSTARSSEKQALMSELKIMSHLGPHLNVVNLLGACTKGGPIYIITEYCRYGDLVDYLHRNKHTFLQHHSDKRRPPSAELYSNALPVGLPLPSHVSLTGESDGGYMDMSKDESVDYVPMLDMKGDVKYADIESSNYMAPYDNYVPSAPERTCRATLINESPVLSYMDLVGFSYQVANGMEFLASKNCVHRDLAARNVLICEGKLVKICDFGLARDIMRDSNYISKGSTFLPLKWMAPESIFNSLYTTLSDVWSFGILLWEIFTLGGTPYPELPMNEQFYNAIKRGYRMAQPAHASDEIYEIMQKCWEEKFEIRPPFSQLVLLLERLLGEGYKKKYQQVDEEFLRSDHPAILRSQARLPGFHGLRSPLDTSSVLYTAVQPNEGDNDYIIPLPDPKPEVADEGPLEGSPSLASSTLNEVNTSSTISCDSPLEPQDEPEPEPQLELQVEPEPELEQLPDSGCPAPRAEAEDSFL
Sequence of Epidermal growth factor receptor (P00533 whole entry): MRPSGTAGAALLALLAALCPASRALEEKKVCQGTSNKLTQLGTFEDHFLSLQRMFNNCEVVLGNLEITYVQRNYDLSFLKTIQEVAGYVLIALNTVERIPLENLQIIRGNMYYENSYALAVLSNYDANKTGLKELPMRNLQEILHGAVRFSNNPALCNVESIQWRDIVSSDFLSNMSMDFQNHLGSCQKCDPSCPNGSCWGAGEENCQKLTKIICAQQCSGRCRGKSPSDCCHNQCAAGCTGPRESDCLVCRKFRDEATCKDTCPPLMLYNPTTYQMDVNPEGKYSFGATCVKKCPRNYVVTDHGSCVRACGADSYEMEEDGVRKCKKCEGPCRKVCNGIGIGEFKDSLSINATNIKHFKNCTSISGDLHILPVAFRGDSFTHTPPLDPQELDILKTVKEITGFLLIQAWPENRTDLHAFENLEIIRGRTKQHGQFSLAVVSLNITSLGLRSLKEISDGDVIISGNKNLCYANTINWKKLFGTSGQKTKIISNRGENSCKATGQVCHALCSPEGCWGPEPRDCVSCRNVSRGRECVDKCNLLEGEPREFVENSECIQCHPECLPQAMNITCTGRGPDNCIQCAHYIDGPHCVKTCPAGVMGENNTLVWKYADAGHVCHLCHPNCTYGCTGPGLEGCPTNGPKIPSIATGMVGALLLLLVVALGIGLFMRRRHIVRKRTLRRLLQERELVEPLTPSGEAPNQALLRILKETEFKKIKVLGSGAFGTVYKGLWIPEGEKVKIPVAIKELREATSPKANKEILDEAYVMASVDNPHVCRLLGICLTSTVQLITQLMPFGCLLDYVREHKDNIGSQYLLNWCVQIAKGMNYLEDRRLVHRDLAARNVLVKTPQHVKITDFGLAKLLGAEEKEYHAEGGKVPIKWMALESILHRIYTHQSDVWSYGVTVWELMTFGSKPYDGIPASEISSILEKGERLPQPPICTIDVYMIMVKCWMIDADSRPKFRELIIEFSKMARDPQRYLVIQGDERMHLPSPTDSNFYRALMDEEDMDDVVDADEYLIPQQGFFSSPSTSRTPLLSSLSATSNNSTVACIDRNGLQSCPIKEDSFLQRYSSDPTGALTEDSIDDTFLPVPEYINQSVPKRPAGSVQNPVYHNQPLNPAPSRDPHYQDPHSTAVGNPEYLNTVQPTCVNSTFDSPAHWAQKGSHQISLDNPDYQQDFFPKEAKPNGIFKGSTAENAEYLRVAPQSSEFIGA
Sequence of Vascular endothelial growth factor receptor 2 (P35968 whole entry): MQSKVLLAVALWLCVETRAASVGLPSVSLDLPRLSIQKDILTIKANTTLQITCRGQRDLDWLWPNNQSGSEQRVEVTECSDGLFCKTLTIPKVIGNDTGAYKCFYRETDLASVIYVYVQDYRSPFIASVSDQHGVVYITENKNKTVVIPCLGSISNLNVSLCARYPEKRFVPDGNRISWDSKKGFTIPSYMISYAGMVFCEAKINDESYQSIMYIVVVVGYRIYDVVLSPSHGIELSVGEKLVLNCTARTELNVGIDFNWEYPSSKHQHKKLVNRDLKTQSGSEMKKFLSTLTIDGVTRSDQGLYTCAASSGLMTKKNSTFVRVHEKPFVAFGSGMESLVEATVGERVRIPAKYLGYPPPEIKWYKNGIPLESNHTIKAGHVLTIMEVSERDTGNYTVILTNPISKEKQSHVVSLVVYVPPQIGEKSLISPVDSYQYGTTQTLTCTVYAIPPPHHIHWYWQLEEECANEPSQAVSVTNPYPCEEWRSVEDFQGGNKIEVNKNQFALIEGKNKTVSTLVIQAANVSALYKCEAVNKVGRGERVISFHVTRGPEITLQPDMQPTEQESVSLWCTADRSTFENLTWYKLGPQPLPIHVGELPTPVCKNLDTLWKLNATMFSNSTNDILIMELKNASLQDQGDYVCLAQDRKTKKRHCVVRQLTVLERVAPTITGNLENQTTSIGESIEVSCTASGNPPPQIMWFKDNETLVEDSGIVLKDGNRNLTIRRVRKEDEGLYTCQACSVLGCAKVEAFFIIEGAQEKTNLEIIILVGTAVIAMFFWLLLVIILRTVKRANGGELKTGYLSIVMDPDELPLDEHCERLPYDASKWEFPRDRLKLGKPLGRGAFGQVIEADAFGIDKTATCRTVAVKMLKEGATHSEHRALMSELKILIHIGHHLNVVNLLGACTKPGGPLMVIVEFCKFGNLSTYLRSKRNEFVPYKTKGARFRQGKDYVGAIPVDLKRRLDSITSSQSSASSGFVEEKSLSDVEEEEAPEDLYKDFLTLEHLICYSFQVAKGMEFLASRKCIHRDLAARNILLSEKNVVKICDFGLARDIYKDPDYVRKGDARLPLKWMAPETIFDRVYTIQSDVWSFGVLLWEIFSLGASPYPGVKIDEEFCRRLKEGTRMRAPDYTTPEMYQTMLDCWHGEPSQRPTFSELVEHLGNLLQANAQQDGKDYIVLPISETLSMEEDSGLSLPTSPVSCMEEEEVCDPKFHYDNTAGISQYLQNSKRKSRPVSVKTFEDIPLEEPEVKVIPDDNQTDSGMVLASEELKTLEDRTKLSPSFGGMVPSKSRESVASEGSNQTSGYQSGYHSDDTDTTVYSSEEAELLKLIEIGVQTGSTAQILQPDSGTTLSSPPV

O=[N+]([O-])c1ccc(COc2cccc(Nc3ncnc4cc5c(cc34)OCCOCCOCCO5)c2)cc1
IC50 (HepG2 [1]): > 100 µM | IC50 (SH-SY5Y): > 100 µM | IC50 (DU-145): > 100 µM | IC50 (MCF7): > 100 µM | IC50 (A549): > 100 µM

FC(F)(F)c1ccc(COc2cccc(Nc3ncnc4cc5c(cc34)OCCOCCOCCOCCO5)c2)cc1
IC50 (HepG2 [1]): 5.7 µM | IC50 [2]: 45.2 µM | IC50 (SH-SY5Y): 8.56 µM | IC50 (DU-145): 26.9 µM | IC50 (MCF7): 8.48 µM | IC50 (A549): 8.52 µM

O=[N+]([O-])c1ccc(COc2ccc(Nc3ncnc4cc5c(cc34)OCCOCCO5)cc2)cc1
IC50 (HepG2 [1]): > 100 µM | IC50 [2]: 47.1 µM | IC50 (SH-SY5Y): 55.2 µM | IC50 (DU-145): > 100 µM | IC50 (MCF7): 39.7 µM | IC50 (A549): 8.62 µM

O=[N+]([O-])c1ccc(COc2ccccc2Nc2ncnc3cc4c(cc23)OCCOCCO4)cc1
IC50 (HepG2 [1]): 50.2 µM | IC50 (SH-SY5Y): > 100 µM | IC50 (DU-145): 85.6 µM | IC50 (MCF7): > 100 µM | IC50 (A549): 28.4 µM

O=[N+]([O-])c1ccc(COc2cccc(Nc3ncnc4cc5c(cc34)OCCOCCOCCOCCO5)c2)cc1
IC50 (HepG2 [1]): 9.82 µM | IC50 [2]: > 100 µM | IC50 (SH-SY5Y): 8.42 µM | IC50 (DU-145): 13.8 µM | IC50 (MCF7): 6.41 µM | IC50 (A549): 19.8 µM

O=[N+]([O-])c1ccc(COc2ccc(Nc3ncnc4cc5c(cc34)OCCOCCOCCOCCO5)cc2)cc1
IC50 (HepG2 [1]): > 100 µM | IC50 (SH-SY5Y): > 100 µM | IC50 (DU-145): > 100 µM | IC50 (MCF7): > 100 µM | IC50 (A549): > 100 µM

c1ccc(COc2cccc(Nc3ncnc4cc5c(cc34)OCCOCCO5)c2)cc1
IC50 (HepG2 [1]): > 100 µM | IC50 [2]: > 100 µM | IC50 (SH-SY5Y): 68.4 µM | IC50 (DU-145): > 100 µM | IC50 (MCF7): 40.9 µM | IC50 (A549): 7.59 µM

FC(F)(F)c1ccc(COc2ccc(Nc3ncnc4cc5c(cc34)OCCOCCOCCOCCO5)cc2)cc1
inhibition (HepG2 [3]): Dose-dependent effect | IC50 [4]: 385 nM | IC50 (HepG2 [1]): 3.34 µM | Activity (HepG2 [5]): Active | Activity (HepG2 [6]): 35% | Activity [7]: Non-Toxic | IC50 [2]: 38.2 µM | Activity (HepG2 [8]): 29.1% | Activity (HepG2 [9]): Active | IC50 (SH-SY5Y): 2.14 µM | Activity (HepG2 [10]): 52.5% | Activity (HepG2 [11]): 1.01% | IC50 (DU-145): 8.8 µM | Activity (HepG2 [12]): 1.35% | IC50 [13]: 674 nM | Activity (HepG2 [14]): Dose-dependent effect | inhibition in vivo at 40 mg/kg (HepG2 [15]): 100% | Activity (HepG2 [16]): 71.3% | Activity (HepG2 [17]): Active | Activity (HepG2 [18]): Active | IC50 (MCF7): 10 µM | Activity (HepG2 [19]): 61.3% | Activity (HepG2 [20]): 3.72% | Activity (HepG2 [21]): Active | Activity (HepG2 [22]): Active | Activity [23]: Toxic | IC50 [24]: 46.4 nM | IC50 (A549): 8.56 µM | Activity (HepG2 [25]): 8.89% | Activity (HepG2 [26]): Active | Activity (HepG2 [27]): 24% | Activity (HepG2 [28]): 8.27% | Activity (HepG2 [29]): 3.61%

CNC(=O)c1cc(Oc2ccc(NC(=O)Nc3ccc(Cl)c(C(F)(F)F)c3)cc2)ccn1 [SORAFENIB]
IC50 (HepG2 [1]): 7.84 µM | IC50 (SH-SY5Y): > 100 µM | IC50 (DU-145): 83.7 µM | inhibition in vivo at 40 mg/kg (HepG2 [15]): 100% | IC50 (MCF7): 38.2 µM | Activity [23]: Toxic | IC50 (A549): 25.7 µM | Activity [30]: Non-Toxic

FC(F)(F)c1ccc(COc2ccc(Nc3ncnc4cc5c(cc34)OCCOCCO5)cc2)cc1
IC50 (HepG2 [1]): > 100 µM | IC50 (SH-SY5Y): 30.4 µM | IC50 (DU-145): > 100 µM | IC50 (MCF7): > 100 µM | IC50 (A549): > 100 µM

FC(F)(F)c1ccc(COc2cccc(Nc3ncnc4cc5c(cc34)OCCOCCOCCO5)c2)cc1
IC50 (HepG2 [1]): 34 µM | IC50 [2]: 33.3 µM | IC50 (SH-SY5Y): 20 µM | IC50 (DU-145): 2.76 µM | IC50 (MCF7): 17.6 µM | IC50 (A549): 24.9 µM

FC(F)(F)c1ccc(COc2ccccc2Nc2ncnc3cc4c(cc23)OCCOCCO4)cc1
IC50 (HepG2 [1]): > 100 µM | IC50 (SH-SY5Y): > 100 µM | IC50 (DU-145): > 100 µM | IC50 (MCF7): > 100 µM | IC50 (A549): > 100 µM
